± gives the standard deviation of the averaged measurements.
What was measured:
Assay in all cases: level (log10 ratio to DMSO vehicle control); higher = higher biomarker level / cell amount than vehicle control
Conditions in all cases: in DMSO
Perfluorooctanamidine = compound: N=C(N)C(F)(F)C(F)(F)C(F)(F)C(F)(F)C(F)(F)C(F)(F)C(F)(F)F [Perfluorooctanamidine]
Description: (§1)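 BioMAP Diversity Plus panel of 12 human primary cell co-culture systems (3C, 4H, LPS, SAg, BT, BF4T, BE3C, CASM3C, HDF3CGF, KF3CT, MyoF, Mphg). Compounds were added 1 h before stimulation and left for 24 h (MyoF 48 h; BT 72 h for soluble read-outs or 6 d for IgG). Biomarkers were read by ELISA, cytotoxicity by SRB, PBMC viability and proliferation by Alamar Blue. Each well value was divided by the mean of 8 DMSO control wells on the same plate and log10 transformed; duplicate blinded samples were tested at 4 concentrations.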

Perfluorooctanamide = compound: NC(=O)C(F)(F)C(F)(F)C(F)(F)C(F)(F)C(F)(F)C(F)(F)C(F)(F)F [Perfluorooctanamide]
Description: as §1

[1] = compound: C=CC(=O)OCCC(F)(F)C(F)(F)C(F)(F)C(F)(F)F [2-(Perfluorobutyl)ethyl acrylate]
Description: as §1

[2] = compound: CC(C)(C)C(=O)CC(=O)C(F)(F)C(F)(F)C(F)(F)F [(Heptafluorobutanoyl)pivaloylmethane]
Description: as §1

[3] = compound: OCC(F)(F)C(F)(F)C(F)(F)C(F)(F)C(F)(F)C(F)F [1H,1H,7H-Dodecafluoro-1-heptanol]
Description: as §1

[4] = compound: O=C(O)C(F)(F)C(F)(F)C(F)(F)C(F)(F)C(F)(F)C(F)(F)C(F)(F)C(F)(F)Cl [9-Chloro-perfluorononanoic acid]
Description: as §1

[5] = compound: O=C(O)CCC(F)(F)C(F)(F)C(F)(F)C(F)(F)C(F)(F)F [2H,2H,3H,3H-Perfluorooctanoic acid]
Description: as §1

Row | Test System | level (log10) (Perfluorooctanamidine; 6700 nM) | level (log10) (Perfluorooctanamidine; 20000 nM) | level (log10) (Perfluorooctanamidine; 60000 nM) | level (log10) (Perfluorooctanamide; 6700 nM) | level (log10) (Perfluorooctanamide; 20000 nM) | level (log10) (Perfluorooctanamide; 60000 nM) | level (log10) ([1]; 6700 nM) | level (log10) ([1]; 20000 nM) | level (log10) ([1]; 60000 nM) | level (log10) ([2]; 6700 nM) | level (log10) ([2]; 20000 nM) | level (log10) ([2]; 60000 nM) | level (log10) ([3]; 6700 nM) | level (log10) ([3]; 20000 nM) | level (log10) ([3]; 60000 nM) | level (log10) ([4]; 6700 nM) | level (log10) ([4]; 20000 nM) | level (log10) ([5]; 6700 nM) | level (log10) ([5]; 20000 nM) | level (log10) ([5]; 60000 nM)
1 | MyoF:Collagen I | -0.0005 ± 0.013 | 0.007 ± 0.0085 | 0.047 | -0.007 ± 0.0099 | -0.0265 ± 0.015 | -0.0435 ± 0.0035 | 0.0105 ± 0.016 | 0.01 ± 0.03 | -0.002 ± 0.025 | -0.0165 ± 0.011 | -0.007 ± 0.0099 | 0.0065 ± 0.013 | 0.0055 ± 0.012 | -0.0175 ± 0.018 | 0.003 ± 0.023 | -0.0135 ± 0.005 | -0.29 ± 0.019 | 0.013 ± 0.0014 | -0.0005 ± 0.0064 | 0.0055 ± 0.018
2 | MyoF:Collagen III | -0.0045 ± 0.015 | 0.003 ± 0.017 | 0.006 | -0.0005 ± 0.029 | 0.0045 ± 0.033 | 0.002 ± 0.013 | -0.009 ± 0.016 | -0.006 ± 0.0028 | -0.0265 ± 0.013 | -0.0115 ± 0.0021 | -0.002 ± 0.013 | 0.026 ± 0.0028 | -0.0095 ± 0.0035 | -0.012 | -0.015 ± 0.0071 | -0.033 ± 0.027 | -0.498 ± 0.0085 | -0.021 ± 0.023 | -0.026 ± 0.024 | -0.0115 ± 0.022
3 | MyoF:Collagen IV | 0.0195 ± 0.03 | 0.044 ± 0.018 | 0.117 | -0.0335 ± 0.026 | -0.0345 ± 0.042 | -0.079 ± 0.064 | 0.0195 ± 0.0078 | -0.0085 ± 0.012 | 0.0295 ± 0.035 | -0.0345 ± 0.021 | -0.0295 ± 0.0092 | 0.0005 ± 0.0021 | -0.0115 ± 0.015 | -0.0025 ± 0.018 | 0.011 ± 0.025 | 0.024 ± 0.0071 | 0.264 ± 0.031 | -0.009 ± 0.021 | -0.0075 ± 0.026 | 0.0115 ± 0.023
4 | MyoF:Decorin | 0.004 ± 0.0099 | 0.0055 ± 0.013 | 0.07 | -0.0145 ± 0.05 | 0.027 ± 0.078 | 0.0305 ± 0.04 | 0.0005 ± 0.016 | 0.004 ± 0.016 | 0.022 ± 0.037 | 0.0195 ± 0.059 | 0.018 ± 0.03 | 0.0365 ± 0.021 | -0.0105 ± 0.00071 | -0.0005 ± 0.036 | -0.017 ± 0.021 | 0.012 ± 0.0014 | -0.0045 ± 0.05 | -0.0075 ± 0.0021 | -0.0065 ± 0.00071 | 0.019 ± 0.0071
5 | MyoF:MMP-1 | -0.025 ± 0.024 | -0.01 | 0.062 | -0.0075 ± 0.011 | -0.013 ± 0.04 | -0.0045 ± 0.026 | 0.0005 ± 0.0092 | 0.024 ± 0.017 | 0.0405 ± 0.012 | -0.036 ± 0.013 | -0.0255 ± 0.025 | 0.025 ± 0.058 | -0.025 ± 0.035 | -0.029 ± 0.021 | -0.0015 ± 0.012 | -0.028 ± 0.03 | -0.0585 ± 0.0064 | -0.017 ± 0.041 | -0.044 ± 0.0099 | -0.007 ± 0.033
6 | MyoF:PAI-I | 0.0015 ± 0.0064 | -0.0075 ± 0.013 | 0.021 | -0.009 | -0.014 ± 0.0071 | 0.005 ± 0.0014 | -0.003 ± 0.0071 | 0.001 ± 0.023 | 0.0005 ± 0.018 | 0.009 ± 0.016 | 0.009 ± 0.024 | 0.0195 ± 0.018 | -0.0045 ± 0.013 | -0.0015 ± 0.011 | 0.007 ± 0.0057 | -0.0065 ± 0.0078 | -0.0185 ± 0.011 | -0.009 ± 0.0028 | -0.0155 ± 0.005 | -0.0025 ± 0.005
7 | MyoF:SRB | 0.007 ± 0.0028 | -0.003 ± 0.0042 | 0.013 | -0.006 ± 0.0042 | 0.0045 ± 0.012 | -0.0055 ± 0.011 | -0.001 ± 0.0099 | -0.004 ± 0.011 | -0.0085 ± 0.00071 | -0.0015 ± 0.0064 | -0.0085 ± 0.012 | -0.002 ± 0.0057 | 0.001 ± 0.0085 | -0.0025 ± 0.00071 | -0.007 ± 0.0085 | -0.004 | -0.0605 ± 0.005 | -0.002 ± 0.0057 | -0.0035 ± 0.0064 | -0.0065 ± 0.015
8 | MyoF:TIMP-1 | 0.0185 ± 0.011 | 0.041 | 0.123 | -0.016 ± 0.014 | 0.0075 ± 0.012 | -0.0375 ± 0.0021 | -0.031 ± 0.048 | 0.0025 ± 0.018 | 0.016 ± 0.042 | 0.0095 ± 0.028 | 0.0135 ± 0.06 | 0.009 ± 0.047 | -0.013 ± 0.018 | -0.0025 ± 0.023 | -0.0065 ± 0.046 | -0.0445 ± 0.063 | -0.006 ± 0.057 | -0.035 ± 0.088 | -0.0365 ± 0.087 | -0.0155 ± 0.071
9 | MyoF:alpha-SM Actin | 0.0015 ± 0.054 | -0.009 ± 0.042 | 0.066 | -0.0095 ± 0.005 | -0.023 ± 0.017 | -0.045 ± 0.0085 | -0.0075 ± 0.0078 | -0.0325 ± 0.00071 | -0.0665 ± 0.00071 | -0.006 ± 0.05 | -0.002 ± 0.034 | -0.0215 ± 0.0021 | -0.012 ± 0.0014 | 0.0015 ± 0.005 | -0.0115 ± 0.011 | -0.009 ± 0.028 | -0.022 ± 0.013 | 0.048 ± 0.024 | 0.017 ± 0.013 | 0.0205 ± 0.061
10 | MyoF:bFGF | -0.0085 ± 0.032 | -0.0115 ± 0.03 | 0.044 | -0.005 ± 0.0014 | -0.0055 ± 0.015 | 0.007 ± 0.0014 | -0.0035 ± 0.0021 | -0.003 ± 0.0042 | 0.02 ± 0.011 | 0.002 ± 0.0028 | 0.0065 ± 0.0035 | 0.021 ± 0.0071 | 0.0085 ± 0.0064 | 0.0065 ± 0.015 | 0.0065 ± 0.013 | -0.003 ± 0.023 | 0.0085 ± 0.011 | -0.013 ± 0.017 | -0.011 ± 0.0085 | -0.008 ± 0.021
11 | lMphg:CCL2/MCP-1 | -0.03 ± 0.016 | -0.006 ± 0.0085 | 0.021 | 0.012 ± 0.013 | 0.001 ± 0.025 | -0.0235 ± 0.035 | -0.0335 ± 0.0078 | -0.0445 ± 0.0078 | -0.012 ± 0.04 | -0.0135 ± 0.025 | -0.018 ± 0.0071 | -0.0255 ± 0.021 | -0.011 ± 0.014 | -0.009 ± 0.024 | 0.0115 ± 0.035 | 0.008 ± 0.047 | 0.0025 ± 0.015 | 0.007 ± 0.016 | -0.0115 ± 0.005 | -0.01
